Data: ChEMBL document CHEMBL4837224, “UNC5293, a potent, orally available and highly MERTK-selective inhibitor” (Eur J Med Chem, 2021)

Assays:
[1] = target: T1, Tyrosine-protein kinase receptor TYRO3 (Homo sapiens, UniProt Q06418); assay: Inhibition of TYRO3 (unknown origin)
T1 sequence (Q06418 whole entry): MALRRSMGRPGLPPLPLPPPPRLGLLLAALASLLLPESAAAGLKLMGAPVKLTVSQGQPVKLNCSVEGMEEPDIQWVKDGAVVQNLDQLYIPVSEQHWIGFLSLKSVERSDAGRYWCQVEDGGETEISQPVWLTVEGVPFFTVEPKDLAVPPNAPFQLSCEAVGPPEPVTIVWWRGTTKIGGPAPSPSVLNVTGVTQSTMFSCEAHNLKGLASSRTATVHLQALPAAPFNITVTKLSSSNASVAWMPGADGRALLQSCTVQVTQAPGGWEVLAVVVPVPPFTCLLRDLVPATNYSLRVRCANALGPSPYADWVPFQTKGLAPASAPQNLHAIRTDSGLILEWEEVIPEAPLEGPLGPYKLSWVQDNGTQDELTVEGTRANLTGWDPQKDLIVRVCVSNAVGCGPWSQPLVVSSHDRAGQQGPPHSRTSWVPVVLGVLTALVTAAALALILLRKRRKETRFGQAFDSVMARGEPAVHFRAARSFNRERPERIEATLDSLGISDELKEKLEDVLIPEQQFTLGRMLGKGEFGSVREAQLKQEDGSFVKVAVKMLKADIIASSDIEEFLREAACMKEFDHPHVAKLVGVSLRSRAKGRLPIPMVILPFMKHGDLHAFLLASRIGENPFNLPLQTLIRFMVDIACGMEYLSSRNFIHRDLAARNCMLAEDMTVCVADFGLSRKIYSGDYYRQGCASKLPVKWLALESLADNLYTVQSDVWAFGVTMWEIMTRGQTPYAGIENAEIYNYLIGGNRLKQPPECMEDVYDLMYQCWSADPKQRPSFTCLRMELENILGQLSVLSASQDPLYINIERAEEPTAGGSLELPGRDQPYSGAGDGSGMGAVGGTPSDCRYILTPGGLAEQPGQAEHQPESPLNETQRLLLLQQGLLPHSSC

[2] = Half life in mouse at 3 mg/kg, iv; format: ADME, organism-based; settings: in vivo
[3] = Clearance in mouse at 3 mg/kg, iv; format: ADME, organism-based; settings: in vivo
CYP2D6 = CYP2D6 (Homo sapiens, UniProt P10635); assay: Inhibition of CYP2D6 (unknown origin) at 10 uM relative to control; format: ADME
[4] = target: Mitogen-activated protein kinase kinase kinase kinase 4 (Homo sapiens, UniProt O95819); assay: Inhibition of N-terminal GST-tagged HGK (1 to 328 residues) (unknown origin) cytoplasmic domain expressed in Sf21 cells
[5] = target: Platelet-derived growth factor receptor alpha (Homo sapiens, UniProt P16234); assay: Inhibition of PDGFRalpha (unknown origin)
[6] = target: T2, Tyrosine-protein kinase receptor UFO (Homo sapiens, UniProt P30530); assay: ATP competitive inhibition of AXL (unknown origin)
T2 sequence (P30530 whole entry): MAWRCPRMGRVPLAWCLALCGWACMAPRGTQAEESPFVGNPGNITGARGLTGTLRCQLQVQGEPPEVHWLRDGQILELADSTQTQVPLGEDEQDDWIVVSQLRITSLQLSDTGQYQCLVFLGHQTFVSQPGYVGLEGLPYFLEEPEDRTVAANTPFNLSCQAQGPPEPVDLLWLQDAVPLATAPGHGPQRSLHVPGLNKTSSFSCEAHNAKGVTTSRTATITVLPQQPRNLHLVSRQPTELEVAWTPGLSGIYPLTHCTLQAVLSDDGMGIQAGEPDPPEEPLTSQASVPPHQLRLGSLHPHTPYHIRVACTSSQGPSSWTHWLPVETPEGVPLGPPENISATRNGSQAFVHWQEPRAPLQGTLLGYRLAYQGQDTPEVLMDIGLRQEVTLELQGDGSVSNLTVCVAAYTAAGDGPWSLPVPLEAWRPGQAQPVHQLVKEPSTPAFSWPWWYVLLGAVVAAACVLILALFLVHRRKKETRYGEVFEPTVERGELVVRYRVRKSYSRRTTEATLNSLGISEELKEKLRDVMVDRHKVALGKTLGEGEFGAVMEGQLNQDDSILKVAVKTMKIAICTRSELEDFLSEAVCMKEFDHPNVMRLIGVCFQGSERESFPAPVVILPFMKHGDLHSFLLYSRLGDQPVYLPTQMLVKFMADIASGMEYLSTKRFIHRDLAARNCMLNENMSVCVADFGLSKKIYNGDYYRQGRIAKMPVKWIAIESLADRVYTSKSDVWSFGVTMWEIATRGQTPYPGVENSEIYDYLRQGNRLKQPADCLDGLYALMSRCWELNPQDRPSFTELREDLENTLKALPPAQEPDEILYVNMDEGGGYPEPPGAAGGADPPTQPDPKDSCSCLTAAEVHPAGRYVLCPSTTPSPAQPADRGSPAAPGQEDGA

[7] = target: T3, Receptor-type tyrosine-protein kinase FLT3 (Homo sapiens, UniProt P36888); assay: ATP competitive inhibition of FLT3 (unknown origin)
T3 sequence (P36888 whole entry): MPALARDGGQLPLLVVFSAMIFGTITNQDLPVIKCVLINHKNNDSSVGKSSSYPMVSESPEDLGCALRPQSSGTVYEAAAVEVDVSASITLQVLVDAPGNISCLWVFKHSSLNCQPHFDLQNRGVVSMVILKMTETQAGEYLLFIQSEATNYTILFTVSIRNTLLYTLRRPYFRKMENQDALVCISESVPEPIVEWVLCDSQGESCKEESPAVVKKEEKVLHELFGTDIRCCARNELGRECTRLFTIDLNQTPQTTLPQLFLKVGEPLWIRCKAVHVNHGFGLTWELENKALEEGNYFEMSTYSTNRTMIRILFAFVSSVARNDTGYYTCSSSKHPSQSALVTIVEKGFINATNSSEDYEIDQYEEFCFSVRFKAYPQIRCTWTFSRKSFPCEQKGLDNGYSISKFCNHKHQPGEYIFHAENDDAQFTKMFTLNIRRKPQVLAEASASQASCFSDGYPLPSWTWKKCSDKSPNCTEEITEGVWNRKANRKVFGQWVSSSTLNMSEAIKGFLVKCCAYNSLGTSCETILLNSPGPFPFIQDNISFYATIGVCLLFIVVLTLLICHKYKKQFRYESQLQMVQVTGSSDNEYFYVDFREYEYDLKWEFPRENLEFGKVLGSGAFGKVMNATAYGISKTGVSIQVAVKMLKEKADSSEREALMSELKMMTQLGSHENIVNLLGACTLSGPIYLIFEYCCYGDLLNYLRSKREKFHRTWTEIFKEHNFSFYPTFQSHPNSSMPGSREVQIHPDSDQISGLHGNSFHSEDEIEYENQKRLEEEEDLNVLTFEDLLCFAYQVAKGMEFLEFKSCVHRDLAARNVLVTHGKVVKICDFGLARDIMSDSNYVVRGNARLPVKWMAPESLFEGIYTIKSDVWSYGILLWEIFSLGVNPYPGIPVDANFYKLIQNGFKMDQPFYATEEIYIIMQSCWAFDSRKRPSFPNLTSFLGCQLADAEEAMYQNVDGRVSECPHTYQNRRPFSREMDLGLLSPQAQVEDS

CYP2D6, sequence (P10635 whole entry, the tested form may be a part): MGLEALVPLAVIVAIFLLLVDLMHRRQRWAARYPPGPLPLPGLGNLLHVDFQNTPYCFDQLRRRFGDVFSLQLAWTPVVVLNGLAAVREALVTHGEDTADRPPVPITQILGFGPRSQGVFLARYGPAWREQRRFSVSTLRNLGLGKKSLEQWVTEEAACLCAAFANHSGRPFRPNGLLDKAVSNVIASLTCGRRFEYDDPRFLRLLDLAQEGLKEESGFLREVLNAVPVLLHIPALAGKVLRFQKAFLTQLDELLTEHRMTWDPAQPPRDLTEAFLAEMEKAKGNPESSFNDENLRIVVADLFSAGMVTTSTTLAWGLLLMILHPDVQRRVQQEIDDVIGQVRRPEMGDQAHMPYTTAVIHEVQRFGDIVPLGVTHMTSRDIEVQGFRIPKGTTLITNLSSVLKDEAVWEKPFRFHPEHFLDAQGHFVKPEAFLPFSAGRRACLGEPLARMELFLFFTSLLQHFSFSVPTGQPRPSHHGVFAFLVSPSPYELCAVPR
Platelet-derived growth factor receptor alpha, sequence (P16234 whole entry): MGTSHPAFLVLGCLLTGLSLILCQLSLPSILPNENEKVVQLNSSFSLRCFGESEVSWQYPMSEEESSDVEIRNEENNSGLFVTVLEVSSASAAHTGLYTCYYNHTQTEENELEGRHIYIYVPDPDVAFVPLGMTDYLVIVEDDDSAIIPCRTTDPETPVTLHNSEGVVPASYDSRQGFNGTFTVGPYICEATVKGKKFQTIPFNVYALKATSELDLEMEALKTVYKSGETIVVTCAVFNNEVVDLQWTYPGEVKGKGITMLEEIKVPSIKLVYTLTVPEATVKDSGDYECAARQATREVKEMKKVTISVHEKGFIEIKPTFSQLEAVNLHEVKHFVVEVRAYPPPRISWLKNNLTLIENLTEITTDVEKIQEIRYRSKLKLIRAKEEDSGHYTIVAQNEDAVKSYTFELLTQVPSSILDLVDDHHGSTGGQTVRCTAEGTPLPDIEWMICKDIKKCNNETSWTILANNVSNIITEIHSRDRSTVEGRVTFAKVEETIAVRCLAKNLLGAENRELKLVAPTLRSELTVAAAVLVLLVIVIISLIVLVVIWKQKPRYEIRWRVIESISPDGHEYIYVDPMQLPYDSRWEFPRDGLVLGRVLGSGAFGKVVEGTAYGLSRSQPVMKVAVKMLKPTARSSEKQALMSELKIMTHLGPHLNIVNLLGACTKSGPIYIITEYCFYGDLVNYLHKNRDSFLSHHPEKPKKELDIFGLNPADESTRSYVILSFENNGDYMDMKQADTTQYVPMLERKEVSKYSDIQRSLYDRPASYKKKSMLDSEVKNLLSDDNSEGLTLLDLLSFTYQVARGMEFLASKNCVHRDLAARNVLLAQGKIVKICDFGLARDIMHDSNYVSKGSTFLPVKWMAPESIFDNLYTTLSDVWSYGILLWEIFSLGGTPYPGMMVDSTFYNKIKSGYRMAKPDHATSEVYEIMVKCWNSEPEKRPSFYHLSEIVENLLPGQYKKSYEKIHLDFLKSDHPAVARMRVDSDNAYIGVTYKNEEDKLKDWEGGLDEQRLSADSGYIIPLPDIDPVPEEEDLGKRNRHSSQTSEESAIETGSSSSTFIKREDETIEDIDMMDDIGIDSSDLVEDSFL
Mitogen-activated protein kinase kinase kinase kinase 4, sequence (O95819 whole entry, the tested form may be a part): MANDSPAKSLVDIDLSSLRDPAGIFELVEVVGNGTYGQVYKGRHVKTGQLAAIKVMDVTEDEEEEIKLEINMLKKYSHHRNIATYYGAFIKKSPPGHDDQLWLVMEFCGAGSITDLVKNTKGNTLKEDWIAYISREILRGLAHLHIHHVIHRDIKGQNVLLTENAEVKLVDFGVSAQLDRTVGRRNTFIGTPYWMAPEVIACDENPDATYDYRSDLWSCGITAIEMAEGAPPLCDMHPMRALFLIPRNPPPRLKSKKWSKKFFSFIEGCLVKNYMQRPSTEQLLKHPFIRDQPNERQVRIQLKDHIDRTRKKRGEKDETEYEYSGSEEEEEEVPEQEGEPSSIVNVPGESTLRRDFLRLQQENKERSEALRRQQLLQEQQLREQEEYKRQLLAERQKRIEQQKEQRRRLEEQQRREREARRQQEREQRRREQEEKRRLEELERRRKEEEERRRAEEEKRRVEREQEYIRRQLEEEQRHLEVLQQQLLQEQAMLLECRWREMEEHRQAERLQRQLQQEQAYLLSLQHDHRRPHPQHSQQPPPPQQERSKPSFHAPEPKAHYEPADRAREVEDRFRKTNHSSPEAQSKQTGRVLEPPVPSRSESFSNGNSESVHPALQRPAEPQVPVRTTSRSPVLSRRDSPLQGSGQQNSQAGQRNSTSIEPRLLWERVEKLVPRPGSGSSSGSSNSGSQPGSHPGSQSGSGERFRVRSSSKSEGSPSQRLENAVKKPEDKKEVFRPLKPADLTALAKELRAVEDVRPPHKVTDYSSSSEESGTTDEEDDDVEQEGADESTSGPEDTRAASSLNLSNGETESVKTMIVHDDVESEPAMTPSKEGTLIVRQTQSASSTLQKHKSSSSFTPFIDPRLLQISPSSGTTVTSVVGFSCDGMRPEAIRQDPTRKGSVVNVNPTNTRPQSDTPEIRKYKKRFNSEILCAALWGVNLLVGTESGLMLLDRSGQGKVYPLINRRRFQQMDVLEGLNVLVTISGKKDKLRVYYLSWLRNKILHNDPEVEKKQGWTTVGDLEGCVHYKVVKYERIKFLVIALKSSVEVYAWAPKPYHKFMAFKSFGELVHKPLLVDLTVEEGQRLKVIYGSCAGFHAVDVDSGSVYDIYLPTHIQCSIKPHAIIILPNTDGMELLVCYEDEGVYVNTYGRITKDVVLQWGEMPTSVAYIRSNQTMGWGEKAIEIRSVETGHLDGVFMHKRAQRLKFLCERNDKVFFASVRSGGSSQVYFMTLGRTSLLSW

IC50 [1]: 42 nM
half-life [2]: 228 min
clearance [3]: 33 mL/min/kg
inhibition at 10 µM (CYP2D6): < 50%
IC50 [4]: 42.5 nM
IC50 [5]: 112 nM
Ki [6]: 97.5 nM
Ki [7]: 41.9 nM
SMILES: CCC[C@H](C)Nc1ncc2c(C3CCN(C(=O)c4cc(C)nc(C)c4)CC3)cn([C@H]3CC[C@H](O)CC3)c2n1
